US20080201790A1, “Method and product for regulating cell responsiveness to external signals” (priority 1993, published 2008)

Experiments:
L929 cells = assay: Neutral red cell viability assay of L929 cells treated with TNFα and/or bFGF; assay type: cell-based, murine
Experimental: In panel A cells were treated with the indicated concentrations of TNFα for 15 hours and were assayed for uptake of neutral red. In panel B cells were untreated (solid bars), treated with 0.5 ng/ml bFGF (dotted bars) or 5.0 ng/ml bFGF (hatched bars) and the indicated concentrations of TNFα for 18 hours. Cell viability was assessed by neutral red assay.
In panel A serum starved L929 cells were untreated or treated for 1 hour at 37° C. with the MEK-1 inhibitor (PD) and then unstimulated or stimulated with bFGF. MAPK activity was measured. In panel B L929 cells were untreated or treated for 1 hour at 37° C. with PD and then were untreated or treated with TNFα alone or in combination with bFGF for 18 hours. Cell viability was assessed by neutral red assay.
Cell lines and culture. L929 cells (ATCC CCL1 were maintained in Dulbecco's modified Eagle's medium with 5% newborn calf serum and 5% bovine calf serum (BCS) supplemented with 100 ug/ml streptomycin and 100 U/ml penicillin. The cells were grown in 10 cm dishes at 37° C. in 7.5% CO2. Cells were made quiescent where indicated by incubation in Dulbecco's modified Eagle's medium and 0.1% bovine serum albumin for 24 h. Recombinant murine TNFα and recombinant human bFGF (147aa) were from R&D Systems, Minneapolis, Minn. Cells were pretreated where indicated with the MEK-1 inhibitor PD#098059 (Parke-Davis Pharmaceutical Corp. Ann Arbor, Mich.) for 1 h at 37° C. Cells were stimulated by incubation with the indicated cytokine or growth factor for various times at 37° C. Stimulation was stopped by rinsing the plates twice with ice cold phosphate buffered saline (PBS) and lysing the cells in the appropriate lysis buffer. Cells were scraped from the plates and nuclei were pelleted for 10 min at 14,000 RPM in a microcentrifuge. JNK assay. JNK activity was measured using a solid state kinase assay in which glutathione S-transferase-c-Jun (1-79) (GST-JUN) cound to glutathione-Sepharose 4B beads was used to affinity purify JNK and then JNK activity was measured in an in vitro kinase assay using the sepharose bound GST-Jun as a substrate (Hibi, M., et al. (1993) Genes & Development 7:2135-2148). Stimulated or unstimulated cells were lysed in 0.5% Nonidet P-40, 20 mM HEPES pH 7.2, 100 mM NaCl, 2 mM dithiothreitol, 1 mM EDTA, 1.0 mM phenylmethylsulfonylfluoride, 1 μg/ml aprotinin and the nuclei pelleted. Lysates were normalized for protein content. JNK was affinity purified from 50-100 μg of cell lysate by the addition of 10 ul of GST-Jun sepharose slurry (2 μg GST-Jun). Binding to GST-Jun efficiently isolates the two major forms of JNK (p45 and p55) and under the conditions used JNK isolation was linear for 10-250 μg of cell lysate. The lysates were rotated at 4° C. for 1-3 h. Beads were washed twice in lysis buffer and then twice in PAN (10 mM PIPES, pH 7.0, 100 mM NaCl, 21 μg/ml aprotinin). Kinase reactions were carried out at 30° C. for 15 min in 20 mM Hepes pH 7.2, 20 mM β-glycerophosphate, 10 mM p-nitrophenyl phosphate, 10 mM MgCl2, 1 mM dithiothreitol, 50 μm sodium vanadate, 10 μCi γ^32P-ATP 4300 Ci/mmole. The kinase reaction was linear from 0-30 min. MAPK Assay MAPK activity was measured exactly as described previously (Gardner, A. M., et al. (1994) Meth. Enzymol. 238:258-270) with the exception that MonoQ FPLC fractionation was replaced by step elution from a DEAE-Sephacel column using 0.5 M NaCl in loading buffer. The eluate was assayed in triplicate using the epidermal growth factor receptor 662-681 peptide (EGFR662-681) as a selective substrate for MAPK activity (Heasley, L. E., et al. (1994) American Journal of Physiology (Renal Fluid Electrolyte Physiol. 36) 267:F366-F373). […]

C-Raf = assay: Raf activation assay in L929 cells, C-Raf; assay type: cell-based, murine

| Substance | time required to induce a similar level of L929 cell death (L929 cells; 1 ng/ml TNFα) [h] | L929 cells being apoptotic (L929 cells; 10 ng/ml TNFα, 15 hr) | activation of C-Raf (phosphorylation of kinase-inactive MEK-1) (C-Raf) | effect on TNFα-mediated cell death (L929 cells; L929 cells) | cell number in the absence of TNFα (L929 cells; bFGF alone) |
| --- | --- | --- | --- | --- | --- |
| TNFα | 24 to 48 | greater than 40% | does not significantly activate either isoform of Raf |  |  |
| bFGF: recombinant human bFGF (147aa), basic fibroblast growth factor |  |  | activation of both B-Raf and C-Raf | effective at blocking | did not measurably increase cell number |
